Data on four compounds can be found in publication PMC3447897 (Diabetes, 2012).

One may read the Kd as the free concentration of one partner at which half of the binding sites on the other are occupied at equilibrium, for simple one-to-one binding. Read a high Kd as weaker binding.

Assay [1] has as its target HLA-B7.2 (Homo sapiens, UniProt P01889). The experiment in a line: HLA-B7 peptide binding affinity assay.
For assay [2], the system named is epitope-specific TMr+CD8+ T cells. As to conditions: median over 7 HLA-A2+ new-onset T1D patients; cited from earlier work.

Residues, ends and D or L forms follow the SMILES beside them.

Sequence of HLA-B7.2 (P01889 25-299 limits assumed): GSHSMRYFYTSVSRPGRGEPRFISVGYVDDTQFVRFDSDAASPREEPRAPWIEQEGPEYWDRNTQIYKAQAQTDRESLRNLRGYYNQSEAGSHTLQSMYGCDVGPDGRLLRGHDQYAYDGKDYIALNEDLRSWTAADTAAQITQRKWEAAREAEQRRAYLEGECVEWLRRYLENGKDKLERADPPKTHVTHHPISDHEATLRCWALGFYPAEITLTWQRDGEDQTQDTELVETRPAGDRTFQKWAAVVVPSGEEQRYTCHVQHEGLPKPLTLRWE
Sequence of HLA-B7.2 (P61769 21-119 partner): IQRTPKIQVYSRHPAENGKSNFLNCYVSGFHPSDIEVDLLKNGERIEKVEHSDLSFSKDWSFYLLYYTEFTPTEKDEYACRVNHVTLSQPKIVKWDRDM

Compound `CC[C@H](C)[C@H](N)C(=O)N1CCC[C@H]1C(=O)N[C@@H](CO)C(=O)N[C@@H](CC(=O)O)C(=O)N[C@@H](CC(C)C)C(=O)N[C@@H](CCC(=O)O)C(=O)N[C@@H](CCCNC(=N)N)C(=O)N[C@@H](CCCNC(=N)N)C(=O)N[C@H](C(=O)N[C@@H](CC(C)C)C(=O)O)[C@@H](C)CC` [GAD311–320] (H-IPSDLERRIL-OH) gave a dissociation constant (Kd) in assay [1] of 100 nM.
On the same count and under the same terms, to `CC[C@H](C)[C@H](NC(=O)[C@@H](NC(=O)[C@@H]1CCCN1C(=O)[C@H](C)N)C(C)C)C(=O)N[C@@H](CCCCN)C(=O)N[C@@H](C)C(=O)N[C@@H](CCCNC(=N)N)C(=O)N[C@@H](CCSC)C(=O)N[C@@H](CCSC)C(=O)O` [GAD530–538] (H-APVIKARMM-OH) belongs 61 nM; to `CC(C)C[C@H](NC(=O)[C@H](C)NC(=O)[C@H](CC(C)C)NC(=O)[C@H](CC(C)C)NC(=O)[C@H](C)NC(=O)[C@H](CC(C)C)NC(=O)[C@H](CC(C)C)NC(=O)[C@@H]1CCCN1C(=O)[C@@H](N)CC(C)C)C(=O)O` [PPI8–16] (H-LPLLALLAL-OH), 1090 nM.
Turning to “PPI6–14: HLA-A2–restricted preproinsulin epitope used for comparison (RLLPLLALL; UniProt P01308 6-14, looked up, fragment)”, in assay [2], the “percent of epitope-specific T cells expressing IFNG mRNA, HLA-A2–restricted” value was 60% and the “percent of epitope-specific T cells expressing TGFB mRNA, HLA-A2–restricted” value is given as 13%.
